What all share (type): in vivo, human
Experiment [1] is described as follows: Equivalent concentration of bitter taste, sensory evaluation, arginine solution (Example 28). The conditions noted are these: 2% arginine solution; addition 4.4 ppm; as concentration of anhydrous caffeine; 10 panelists; no addition 0.131. How it is done: (§1) With respect to the solution produced by adding derivative 1 (the product of the present invention), or adding nothing (no addition; the reference product) in the concentration shown in the following table 4 to the amino acid solution (2% solution of arginine by weight), the sensory evaluation was performed (using 10 panelists), and the equivalent concentration of bitter taste was determined. The results were shown in the table 4, wherein the equivalent concentration of bitter taste was shown in the concentration of aqueous solution of anhydrous caffeine which is a substance of bitter taste.

A short description of experiment [2]: Equivalent concentration of bitter taste (Example 30), Quinine sulfate. The note with it: derivative 4 2.2 ppm; Quinine sulfate 39 ppm; no addition 0.084. How it is done: as §1
(§2) With respect to the solution produced by adding derivative 4 (2.2 ppm) to each of the substances of Quinine sulfate (39 ppm), anhydrous caffeine (2000 ppm), ferrous citrate (50 ppm), calcium lactate (1500 ppm), and thiamine hydrochloride (5000 ppm) (the product of the present invention), or adding nothing thereto (no addition; the reference product) the reference product (no addition), the sensory evaluation was performed (using 10 panelists), and the equivalent concentration of bitter taste was determined in the same way as that described in Example 28, and shown in table 6.

Experiment [3] in a line: Equivalent concentration of bitter taste (Example 30), anhydrous caffeine. The conditions noted are these: derivative 4 2.2 ppm; anhydrous caffeine 2000 ppm; no addition 0.205. As for the experimental part:
as §1, §2

A short description of experiment [4]: Equivalent concentration of bitter taste (Example 30), ferrous citrate. The note with it: derivative 4 2.2 ppm; ferrous citrate 50 ppm; no addition 0.027. As for the experimental part:
as §1, §2

Experiment [5] can be described thus: Equivalent concentration of bitter taste (Example 30), calcium lactate. The conditions noted are these: derivative 4 2.2 ppm; calcium lactate 1500 ppm; no addition 0.054. How it is done: as §1, §2
The nature of experiment [6]: Equivalent concentration of bitter taste (Example 30), thiamine hydrochloride. The note with it: derivative 4 2.2 ppm; thiamine hydrochloride 5000 ppm; no addition 0.131. How it is done: as §1, §2

Take `COC(=O)[C@H](Cc1ccccc1)NC(=O)[C@H](CC(=O)O)NCCCc1ccc(OC)c(O)c1` [Derivative 1, N-[N-[3-(3-hydroxy-4-methoxyphenyl)propyl] -L-α-aspartyl]-L-phenylalanine 1-methyl ester]: the “Equivalent concentration of bitter taste” value in experiment [1] came to 0.060 g/100 g.
With `COC(=O)[C@H](Cc1ccccc1)NC(=O)[C@H](CC(=O)O)NCCC(C)(C)c1ccc(O)c(C)c1` [Derivative 4, N-[N-[3-(3-methyl-4-hydroxyphenyl)-3-methylbutyl]-L-α-aspartyl]-L-phenylalanine 1-methyl ester], the “Equivalent concentration of bitter taste (Amount of anhydrous caffeine g/100 g), Quinine sulfate” value in experiment [2] was 0.025 g/100 g. Also, the “Equivalent concentration of bitter taste (Amount of anhydrous caffeine g/100 g), Caffeine (anhydrous)” value in experiment [3] is 0.045 g/100 g. Moreover, in experiment [4], the “Equivalent concentration of bitter taste (Amount of anhydrous caffeine g/100 g), Ferrous citarte” value was determined as 0.020 g/100 g. Also, the “Equivalent concentration of bitter taste (Amount of anhydrous caffeine g/100 g), Calcium lactate” value in experiment [5] amounted to 0.025 g/100 g. For the same compound, the “Equivalent concentration of bitter taste (Amount of anhydrous caffeine g/100 g), Tiamine hydrochloride” value in experiment [6] turned out to be 0.093 g/100 g.

The record behind these values is US20030059511A1, “Sweetener compositions and uses thereof” (AJINOMOTO CO., INC., priority 1999, published 2003).
